Key:
RET [1] = details: MZ-CRC-1 cells; confirmed in-house (data not shown); read-out: IC 50 in MZ-CRC-1 cells (RET); cited from earlier work
[2] = test system: MZ-CRC-1 (RET (M918T)) versus HEK293 cells; assay: Cell POP (proof of principle) proliferation assay, MZ-CRC-1 vs HEK293 control; format: cell-based, human; details: IC50 HEK293 control cells divided by IC50 MZ-CRC-1 cells
RET-positive patients = details: preliminary report of phase II trial; cited from earlier work
RET [3] = assay: Western blot of pRET, total RET and GAPDH in MZ-CRC-1 cells; format: cell-based; details: 1µM, 24 hours
Method: Following compound treatment (1µM, 24 hours), MZ-CRC-1 cell lysates (50 μg) were subjected to polyacrylamide gel electrophoresis (PAGE) and semi-dry transfer to nitrocellulose membrane using the Bio-Rad Trans-Blot Turbo system and Trans-Blot Turbo transfer packs. Membranes were blocked overnight at 4°C in phosphate-buffered saline containing 0.1% Tween (PBST; Sigma) and 5% non-fat dried milk powder (marvel). Primary and secondary antibody incubations were performed at room temperature in PBST/0.5% marvel with 3× PBST washes post incubation. pRET (Santa Cruz #SC-20252-R) and total RET (Santa Cruz #sc-167) antibodies were used at 1:500 dilutions; GAPDH (Cell Signaling Technology #2118L) and secondary goat anti rabbit IgG HRP-linked (Cell Signaling Technology #7074) antibodies were used at 1:1000. Proteins were visualized by chemiluminescent detection of peroxidase activity using SuperSignal reagent (Pierce), and images were captured using the Syngene imager and GeneSys software.

RET [4] = molecular target: RET (Homo sapiens, UniProt P07949, M918T); assay: RET cellular POM (proof of mechanism) assay; format: cell-based
Chain of RET (Homo sapiens, UniProt P07949, M918T) (P07949 29-1114 M918T): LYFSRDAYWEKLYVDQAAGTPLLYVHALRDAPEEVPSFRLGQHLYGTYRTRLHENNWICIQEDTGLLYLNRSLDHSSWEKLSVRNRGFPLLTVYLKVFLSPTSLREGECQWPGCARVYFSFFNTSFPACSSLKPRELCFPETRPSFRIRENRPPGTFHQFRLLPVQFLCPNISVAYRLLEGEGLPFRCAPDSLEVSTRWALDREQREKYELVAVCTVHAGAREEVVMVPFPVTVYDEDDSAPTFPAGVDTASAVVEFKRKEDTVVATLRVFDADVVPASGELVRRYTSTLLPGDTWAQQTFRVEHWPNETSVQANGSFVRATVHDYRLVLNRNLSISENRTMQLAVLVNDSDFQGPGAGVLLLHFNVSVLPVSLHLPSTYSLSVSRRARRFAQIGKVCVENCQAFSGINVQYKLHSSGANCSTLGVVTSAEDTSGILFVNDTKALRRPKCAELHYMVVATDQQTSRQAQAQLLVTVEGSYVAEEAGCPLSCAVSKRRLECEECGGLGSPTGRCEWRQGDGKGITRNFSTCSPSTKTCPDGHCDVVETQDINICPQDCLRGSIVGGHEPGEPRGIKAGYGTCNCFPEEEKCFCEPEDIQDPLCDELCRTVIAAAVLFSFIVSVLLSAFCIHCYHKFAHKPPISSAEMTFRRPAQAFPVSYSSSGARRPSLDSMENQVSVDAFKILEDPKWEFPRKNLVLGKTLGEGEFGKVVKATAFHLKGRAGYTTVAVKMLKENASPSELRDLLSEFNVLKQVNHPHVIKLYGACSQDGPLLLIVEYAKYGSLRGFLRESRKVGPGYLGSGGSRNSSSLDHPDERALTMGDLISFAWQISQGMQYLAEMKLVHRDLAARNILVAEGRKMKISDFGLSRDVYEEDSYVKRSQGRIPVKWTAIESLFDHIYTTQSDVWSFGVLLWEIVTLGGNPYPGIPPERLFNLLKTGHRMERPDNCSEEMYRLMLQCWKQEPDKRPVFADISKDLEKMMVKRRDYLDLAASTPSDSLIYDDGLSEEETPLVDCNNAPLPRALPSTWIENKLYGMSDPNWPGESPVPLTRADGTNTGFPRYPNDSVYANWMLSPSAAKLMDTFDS

For CCc1cc2c(cc1N1CCC(N3CCOCC3)CC1)C(C)(C)c1[nH]c3cc(C#N)ccc3c1C2=O [Alectinib], the IC50 (RET [1]) is given as […] and the “Toxicity Margin” value [2] is given as “^1>35×”.

In the case of COc1cc2nccc(Oc3ccc(NC(=O)C4(C(=O)Nc5ccc(F)cc5)CC4)cc3)c2cc1OC [Cabozantinib], the Clinical response (RET-positive patients) is listed as “partial responses in two of three RET-positive patients”.

For CNC(=O)c1cc(Oc2ccc(NC(=O)Nc3ccc(Cl)c(C(F)(F)F)c3)cc2)ccn1 [Sorafenib], the “Toxicity Margin” value [2] was 13×.

With CCN(CC)CCNC(=O)c1c(C)[nH]c(/C=C2\C(=O)Nc3ccc(F)cc32)c1C [Sunitinib] the “Toxicity Margin” value [2] was 28×.

For CC(C)c1cc(-c2n[nH]c(=O)n2-c2ccc3c(ccn3C)c2)c(O)cc1O [Ganetespib], the “Effect on levels of active RET” value (RET [3]) was “reduce levels of active RET, through protein degradation”, the “Toxicity Margin” value [2] was 0.7× and the “Selectivity vs. KDR (cell)” value (RET [4]; cellular, KDR IC50 divided by RET IC50) was 0.36×. For the same molecule, the IC50 (RET [4]; geometric mean of at least four independent measurements, read-out: RET Cell IC 50) was 3.9 nM.

For COc1cc2nccc(Oc3ccc(NC(=O)NC4CC4)c(Cl)c3)c2cc1C(N)=O [Lenvatinib], the “Toxicity Margin” value [2] was 141×.

Source: publication PMC4937820, “Identification of selective inhibitors of RET and comparison with current clinical candidates through development and validation of a robust screening cascade” (F1000Research, 2016)
